Test results published in ChEMBL document CHEMBL1201862, “PubChem BioAssay data set” (2004).
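Results reflect a 48-hour exposure of cells in 96-well plates to compound at five concentrations. GI50: concentration for 50% inhibition of growth.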 Activity calls are given as the source filed them. No stated cut-off is given here; in the data, active = GI50 up to about 1.1 µM and inactive = higher.

Assays:
Experiment in all cases: DTP human tumour cell line panel, 48 h
SNB-19 = system: SNB-19
M14 = system: M14
HOP-62 = system: HOP-62
A498 = system: A498
MOLT-4 = system: MOLT-4
OVCAR-5 = system: OVCAR-5
M19-MEL = system: M19-MEL
LOX IMVI = system: LOX IMVI
IGROV-1 = system: IGROV-1
SF-295 = system: SF-295
HCT-116 = system: HCT-116
COLO 205 = system: COLO 205
786-0 = system: 786-0
HL-60 = system: HL-60
PC-3 = system: PC-3
MDA-MB-435 = system: MDA-MB-435
Hs-578T = system: Hs-578T
NCI/ADR-RES = system: NCI/ADR-RES
T47D = system: T47D
BT-549 = system: BT-549

Measured: GI50

O=C1N(c2ccccc2)C2(O)C(=O)c3ccccc3C2(O)N1c1ccccc1 (configuration not stated)
inactive: SNB-19 > 100 µM | M14 > 100 µM | HOP-62 > 100 µM | A498 > 100 µM | MOLT-4 > 100 µM | OVCAR-5 > 100 µM | M19-MEL > 100 µM | LOX IMVI > 100 µM | IGROV-1 > 100 µM | SF-295 > 100 µM | HCT-116 > 100 µM | COLO 205 > 100 µM | 786-0 > 100 µM

CCCc1c[nH]c(-c2ccc(-c3cc(CCC)c(C=O)[nH]3)s2)c1
inactive: SNB-19 22 µM | M14 12.1 µM | A498 7.82 µM | MOLT-4 26.4 µM | M19-MEL 7.93 µM | LOX IMVI 14 µM | IGROV-1 30.4 µM | SF-295 18.9 µM | HL-60 21.2 µM | HCT-116 18 µM | 786-0 14.6 µM

O=[N+]([O-])c1cc(C2SCc3nc4ccccc4n32)ccc1Cl (configuration not stated)
inactive: SNB-19 45.9 µM | A498 18.1 µM | MOLT-4 31.3 µM | OVCAR-5 14.3 µM | M19-MEL 22.2 µM | IGROV-1 45.9 µM | SF-295 38 µM | HL-60 16 µM | HCT-116 17.8 µM | COLO 205 22.1 µM | 786-0 34.3 µM

Cc1cc(C)cc(-n2c3nc(=O)n(C)c(=O)c-3nc3ccccc32)c1
inactive: SNB-19 22.1 µM | M14 27 µM | HOP-62 45.4 µM | A498 > 100 µM | MOLT-4 23 µM | OVCAR-5 39.5 µM | M19-MEL 6.07 µM | LOX IMVI 29.3 µM | IGROV-1 36.1 µM | SF-295 36 µM | HCT-116 23.9 µM | COLO 205 7.29 µM | 786-0 81.7 µM

CCc1ccc(Cc2ccc(CC)c(NC(=O)C(=O)C3NC(=S)NC3=O)c2CC)c(CC)c1NC(=O)C(=O)C1NC(=S)NC1=O (configuration not stated)
inactive: SNB-19 > 100 µM | M14 > 100 µM | HOP-62 > 100 µM | A498 > 100 µM | MOLT-4 > 100 µM | OVCAR-5 > 100 µM | M19-MEL > 100 µM | LOX IMVI > 100 µM | IGROV-1 > 100 µM | HL-60 > 100 µM | HCT-116 > 100 µM | COLO 205 > 100 µM | 786-0 > 100 µM

COCN1C(=O)[C@@H]2CCCN2C(=O)c2ccc(Cl)cc21
inactive: PC-3 > 100 µM | MDA-MB-435 > 100 µM | SNB-19 > 100 µM | M14 > 100 µM | HOP-62 > 100 µM | Hs-578T > 100 µM | A498 > 100 µM | MOLT-4 > 100 µM | NCI/ADR-RES > 100 µM | OVCAR-5 > 100 µM | T47D > 100 µM | BT-549 > 100 µM | LOX IMVI > 100 µM | IGROV-1 > 100 µM | SF-295 > 100 µM | HL-60 > 100 µM | HCT-116 > 100 µM | COLO 205 > 100 µM | 786-0 > 100 µM

COc1cc(C(O)c2ccc3c(c2)OCO3)cc(OC)c1OC (configuration not stated)
inactive: PC-3 > 100 µM | MDA-MB-435 70 µM | SNB-19 > 100 µM | M14 > 100 µM | HOP-62 > 100 µM | Hs-578T > 100 µM | A498 > 100 µM | MOLT-4 > 100 µM | NCI/ADR-RES > 100 µM | OVCAR-5 > 100 µM | T47D 37.1 µM | BT-549 > 100 µM | LOX IMVI > 100 µM | IGROV-1 > 100 µM | SF-295 > 100 µM | HL-60 > 100 µM | HCT-116 > 100 µM | COLO 205 > 100 µM | 786-0 > 100 µM

COc1ccc2c(c1)nc1n2C(N)=Nc2ccccc2S1
inactive: PC-3 16.5 µM | MDA-MB-435 32.4 µM | SNB-19 39.3 µM | M14 10.6 µM | HOP-62 53.1 µM | Hs-578T 61 µM | A498 37.1 µM | MOLT-4 3.69 µM | NCI/ADR-RES 35.2 µM | OVCAR-5 36.6 µM | T47D 20.8 µM | BT-549 48.2 µM | LOX IMVI 11.8 µM | IGROV-1 3.75 µM | SF-295 44.2 µM | HL-60 2.64 µM | HCT-116 5.3 µM | COLO 205 6.08 µM | 786-0 9.68 µM

O=C1Nc2ccccc2/C1=N/Nc1nc(-c2cccc([N+](=O)[O-])c2)cs1
inactive: PC-3 28.2 µM | MDA-MB-435 34.4 µM | SNB-19 26.7 µM | M14 34.1 µM | HOP-62 24.1 µM | Hs-578T 20.1 µM | A498 21.8 µM | MOLT-4 31.5 µM | NCI/ADR-RES 15.3 µM | OVCAR-5 > 100 µM | T47D 27.3 µM | BT-549 36.3 µM | LOX IMVI 20.7 µM | IGROV-1 21.6 µM | SF-295 20.7 µM | HL-60 25.1 µM | HCT-116 19.2 µM | COLO 205 27.1 µM | 786-0 16.3 µM
